{
  "source": "patent EP4578449A1",
  "about": "“PHARMACEUTICAL COMBINATION OF FAK INHIBITOR AND MICROTUBULE INHIBITOR AND USE THEREOF” (Inxmed (Nanjing) Co., Ltd., priority 2022, dated 2024)",
  "key": {"breast cancer 4T1 cells": {"system": "breast cancer 4T1 cells", "assay": "Subcutaneous allograft tumor model of breast cancer 4T1 cells in BALB/c mice", "format": "in vivo", "source_text": "Mice: Female BALB/c mice aged 6-8 weeks were purchased from SHANGHAI SLAC LABORATORY ANIMAL CO. LTD. The assay began after the animals were adapted to the assay environment upon arrival. The animals were kept in IVC (independent ventilation system) cages (5 per cage) in an SPF animal room. All cages, padding and drinking water must be sterilized before use. All assay personnel should wear protective clothing and latex gloves when operating in the animal room. Cages, feed and drinking water were replaced twice a week. The feeding environment and lighting conditions were as follows: • Temperature: 20-26 °C • Humidity: 40-70% • Lighting period: 12 hours light, 12 hours no light • Cages: Made of polycarbonate, 300 mm × 180 mm × 150 mm. The padding was corn cobs, which was replaced twice a week. • Food: The assay animals had free access to food (dry pelleted food sterilized by irradiation) throughout the assay period. • Drinking water: Assay animals were free to drink sterile water. • Cage identification: The animal information card for each cage should indicate the number of animals in the cage, gender, strain, receipt date, dosing regimen, assay number, group and start date of the assay. • Animal identification: Assay animals were identified with ear tags.\nBreast cancer cell 4T1 (source: Nanjing Cobioer Biotechnology Co., Ltd., catalog number: CBP60352) was maintained and passaged by INXMED (Nanjing) Co., Ltd. The cells were cultured in a monolayer in vitro in RPMI-1640 medium with 10% fetal bovine serum in a 37 °C, 5% CO2 incubator. Trypsin-EDTA was used for routine digestion and passage treatment two to three times a week. When the cells were in the exponential growth phase and the adherent confluence reached 80%-90%, the cells were harvested and plated.\n0.1 mL of cell suspension containing 2 x 10^5 cells was subcutaneously inoculated on the right back of each mouse. When the tumor volume reached ~52 mm^3 (10th day after cell inoculation), the mice were randomly divided into groups for drug administration according to the tumor volume. Table 9. Dosing regimen of the test substance in 4T1 mouse transplant tumor model\nThe formulation and any modifications of this assay protocol had been assessed and approved by the IACUC of ArrayBridge. The use and welfare of assay animals were carried out in accordance with AAALAC regulations. The health status and mortality of animals were monitored daily, with routine checks including observation of tumor growth and the impact of drug treatment on the animals' daily behavior, such as activity, food and water intake (estimated by visual inspection), changes in body weight, physical signs, or any other abnormalities. The number of animal deaths and side effects in each group were recorded based on the number of animals in each group.\nIf the animal's health condition continued to deteriorate, or if the tumor volume exceeded 3,000 mm^3, or there was a serious disease or pain, euthanasia should be carried out. In the following cases, the veterinarian was notified and euthanasia was performed: obvious weight loss, i.e., weight loss greater than 20%; inability to freely eat and drink; the average tumor volume of the control group reached 2000 mm^3, the assay was terminated.\nTumor diameters were measured three times a week using calipers. The tumor volume was calculated using the formula: V = 0.5 × a × b^2, where a and b represent the long and short diameters of the tumor, respectively.\nBased on the tumor volume on the first day after grouping, the tumor growth inhibition rate TGI (%) was calculated according to the following formula: TGI (%) = [1 - (average tumor volume of a treatment group - average tumor volume of the treatment group at the beginning of treatment) / (average tumor volume of the solvent control group - average tumor volume of the solvent control group at the beginning of treatment)] × 100%. […]"}, "[1]": {"system": "mouse colon cancer CT26 cells", "assay": "Docetaxel/Eribulin/Paclitaxel and Defactinib: microscopy and CRT/Annexin-V/PI flow cytometry", "format": "cell-based", "conditions": "48 hours, Defactinib 5 µM, Docetaxel 0.3 µM, Eribulin 0.3 µM, Paclitaxel 6 µM, alone or combined with Defactinib", "experimental": "(§1) CT26 cells were cultured in monolayer in vitro under the following conditions: RPMI-1640 medium with 10% fetal bovine serum, 37°C, 5% CO2. Trypsin was used for routine digestion and passage treatment two to three times a week. When the cells were in the exponential growth phase and the adherent confluence reached 80%-90%, the cells were harvested and plated.\n(§2) CT26 cells were digested with trypsin, and then the cells were collected and counted. Based on the counting results, the cells were diluted with the corresponding complete culture medium to a concentration of 50,000 cells per milliliter. Then the cells were plated in 12-well cell culture plates, with 2 ml of cell suspension per well, i.e., 100,000 cells.\n(§3) After plating, the cells were cultured in a 37°C and 5% CO2 incubator.\nAfter 24 hours of plating, the test compounds Docetaxel, Eribulin, Paclitaxel and Defactinib were added to different wells, respectively.\n(§4) After 48 hours of drug action, the cells were photographed using a microscope, and then trypsinized and collected for flow cytometry staining.\n(§5) The cells were washed twice with flow buffer (DPBS + 2% FBS). 0.5 µL of AF647 Anti-Calreticulin Antibody was added to each well, and mixed well. The cells were incubated at 4°C in the dark for 20 min. After washing once with flow buffer, 195 µL of Annexin-V-FITC binding solution was added, and the cells were gently mixed well. 5 µL of Annexin-V-FITC antibody was added. After further mixing, 10 µL of PI dye was added and mixed well. The cells were incubated at room temperature in the dark for 15 min. The cells were then subjected to flow cytometry.\n(§6) After the assay, the cell positive rate was analyzed by Flowjo (V10) software."}, "colon cancer CT26 cells": {"system": "colon cancer CT26 cells", "assay": "IN10018 and Docetaxel: microscopy and CRT/Annexin-V/PI flow cytometry", "format": "cell-based, mouse", "conditions": "48 hours, IN10018 5 µM, Docetaxel 0.1 µM, alone or combined", "experimental": "CT26 cells (Institute of Cell Biology, Chinese Academy of Sciences) were cultured with RPMI-1640 (Shanghai Basalmedia, catalog number: L210KJ, batch number: F210916) + 10% FBS (Gibco, catalog number: 10099-141c, batch number: 2158737cp), and passaged twice. When the cells were in good condition, they were placed in a 24-well plate. After 24 hours of cell spreading, four groups were set up. The first group was the control group, in which culture medium was added; the second group was IN10018 at a concentration of 5µM; the third group was Docetaxel (MCE, classification number: HY-B0011, batch number: 111613) with a concentration of 0.1µM; and the fourth group was the combination group of IN10018 (5 µM) and Docetaxel (0.1µM). The drugs were mixed and cultured in a 5 % CO2 incubator at 37°C for 48 hours.\nAfter 48 hours of drug action, the cells were observed and photographed under a microscope. The photos were saved. Then the cells were collected for flow cytometry, and the cells were washed twice with flow buffer (PBS + 2% FBS). 0.5 µl of AF647 anti-calreticulin antibody (abcam, catalog number: ab196159, batch number: CR33676773) was added to each well, and fully mixed. The cells were incubated at 4 °C for 20 minutes in the dark. […] The mixture was incubated at room temperature in the dark for 15 minutes, and then analyzed on a flow cytometer."}, "[2]": {"system": "mouse breast cancer 4T1 cells", "assay": "Eribulin and IN10018: microscopy and CRT/Annexin-V/PI and GRP94 flow cytometry", "format": "cell-based", "conditions": "48 hours, IN10018 5 µM, Eribulin 0.15 µM or 0.45 µM, alone or combined", "experimental": "as §1, with “4T1” for “CT26”, “37 °C,” for “37°C,”\n4T1 cells were digested with trypsin and then collected and counted. Based on the counting results, the cells were diluted with RPMI-1640+10% FBS to a concentration of 50,000 cells per milliliter. Then the cells were plated in 12-well cell culture plates, with 2 ml of cell suspension per well, i.e., 100,000 cells. After plating, the cells were cultured in a 37°C and 5% CO2 incubator.\n(§7) After 24 hours of plating, test compounds IN10018 and Eribulin were added to different wells, respectively.\nas §4\nThe cells were washed twice with flow buffer (DPBS + 2% FBS), and each group of cells was divided into two equal parts. In one part, 0.5 µL of AF647 Anti-Calreticulin Antibody was added to each well, and mixed. The cells were incubated at 4°C in the dark for 20 min. […]\nas §6"}, "[3]": {"system": "human ovarian epithelial carcinoma TOV-21G cells", "assay": "Eribulin and IN10018: microscopy and CRT/Annexin-V/PI flow cytometry", "format": "cell-based", "conditions": "48 hours, IN10018 10 µM, Eribulin 0.045 µM, alone or combined", "experimental": "(§8) ID8 cells and TOV-21G cells were cultured in monolayer in vitro. ID8 cells were cultured in DMEM medium with 10% fetal bovine serum. TOV-21G cells were cultured in RPMI-1640 medium with 10% fetal bovine serum. Both were cultured in a 37 °C, 5% CO2 incubator. Trypsin was used for routine digestion and passage treatment two to three times a week. When the cells were in the exponential growth phase and the adherent confluence reached 80%-90%, the cells were harvested and plated.\nas §2, with “ID8 cells and TOV-21G” for “CT26”, “trypsin” for “trypsin,”, “then” for “then the cells were”\nas §3, §7, §4\nas §5, with “well, and mixed. The cells” for “well, and mixed well. The cells”\nas §6"}, "[4]": {"system": "mouse ovarian epithelial carcinoma ID8 cells", "assay": "Eribulin and IN10018: microscopy and CRT/Annexin-V/PI flow cytometry", "format": "cell-based", "conditions": "48 hours, IN10018 10 µM, Eribulin 0.045 µM, alone or combined", "experimental": "as §8\nas §2, with “ID8 cells and TOV-21G” for “CT26”, “trypsin” for “trypsin,”, “then” for “then the cells were”\nas §3, §7, §4\nas §5, with “well, and mixed. The cells” for “well, and mixed well. The cells”\nas §6"}},
  "data": [
    {"smiles": "Cc1c(C=Cc2cc(CNC(C)(CO)C(=O)O)ccc2C(F)(F)F)cccc1-c1ccc2c(c1)OCCO2", "note": "(stereo not drawn) [MAX10181]", "values": [
      {"measurement": "Tumor volume on day 0", "setting": "breast cancer 4T1 cells; baseline at grouping (10th day after inoculation), mean ± standard error, 6 mice per group", "result": "51.7 ± 13.9", "unit": "mm^3"},
      {"measurement": "TGI", "setting": "breast cancer 4T1 cells; day 21 after administration, vs control group, DTX 10 mg/kg i.p. BIW, IN10018 25 mg/kg p.o. QD, MAX10181 120 mg/kg p.o. BID", "result": -3.7, "unit": "%"},
      {"measurement": "Tumor volume on day 21", "setting": "breast cancer 4T1 cells; day 21 after administration, DTX 10 mg/kg i.p. BIW, IN10018 25 mg/kg p.o. QD, MAX10181 120 mg/kg p.o. BID, mean ± standard error", "result": "2205.7 ± 912.7", "unit": "mm^3"},
      {"measurement": "death of animals", "setting": "breast cancer 4T1 cells; entire dosing cycle (21 days), 6 mice per group, deaths following diarrhea, MAX10181 120 mg/kg p.o. BID, DTX 10 mg/kg i.p. BIW", "result": "one"}
    ]},
    {"smiles": "CC(=O)O[C@H]1C(=O)[C@@]2(C)[C@H]([C@H](OC(=O)c3ccccc3)[C@]3(O)C[C@H](OC(=O)[C@H](O)[C@@H](NC(=O)c4ccccc4)c4ccccc4)C(C)=C1C3(C)C)[C@]1(OC(C)=O)CO[C@@H]1C[C@@H]2O", "note": "[Paclitaxel]", "values": [
      {"measurement": "cell status (cell death) under a microscope", "setting": "[1]", "result": "obvious"}
    ]},
    {"smiles": "COc1cc(C(=O)NC2CCN(C)CC2)c(F)cc1Nc1ncc(C(F)(F)F)c(Oc2cccc3c2C(=O)N(C)C3)n1", "note": "[IN10018]", "values": [
      {"measurement": "cell status under a microscope", "setting": "colon cancer CT26 cells", "result": "good"},
      {"measurement": "cell status (cell death / cell viability) under a microscope", "setting": "[2]", "result": "better"},
      {"measurement": "cell status (cell death / cell viability) under a microscope", "setting": "[3]", "result": "better"},
      {"measurement": "cell status (cell death / cell viability) under a microscope", "setting": "[4]", "result": "better"}
    ]}
  ]
}
